Test results reported in US20240425464A1, “Substituted Monohydrazides as Potent Antifungal Agents” (University of Kentucky Research Foundation, priority 2023, published 2024).
≈ marks a conversion by molar mass, not a printed value. Read-outs that look alike come from different tables or passages of the source.

Legend:
[1] = system: Candida duobushaemulonii AR Bank #391; assay: MIC determination by in vitro antifungal assay; format: cell-based
Method: (§1) The antifungal agent amphotericin B (AmB) was purchased from VWR (Radnor PA, USA). AmB was dissolved in DMSO at a final concentration of 5 mg/mL and was stored at −20° C., protected from light. Candida albicans American Type Culture Collection (ATCC) 10231 (strain A), C. albicans ATCC 64124 (B), and C. albicans ATCC MYA-2876 (C) were obtained from Utah State University. C. albicans ATCC 90819 (D), C. albicans ATCC MYA-2310 (E), C. albicans ATCC MYA-1237 (F), C. albicans ATCC MYA-1003 (G), Candida glabrata ATCC 2001 (H), Candida krusei ATCC 6258 (I), Candida parapsilosis ATCC 22019 (J), Cryptococcus neoformans ATCC MYA-895 (M), Aspergillus terreus ATCC MYA-3633 (N), and Aspergillus flavus ATCC MYA-3631 (0) were obtained from the American Type Culture Collection (ATCC; Manassas, VA, USA). Aspergillus nidulans ATCC 38163 (P) was obtained from University of Kentucky. Clinically derived Aspergillus fumigatus NRRL 163 (Q), A. fumigatus NRRL 5109 (R), and A. fumigatus NRRL 6113 (S) were obtained from Northern Regional Research Laboratory (NRRL). Candida auris 384 (K), C. auris 390 (L), and fungal strains 381-400 (including 10 C. auris (AR Bank #381-390), 3 Candida duobushaemulonii (AR Bank #391, AR Bank #392, and AR Bank #394), 2 Candida haemulonii (AR Bank #393 and AR Bank #395), 1 Kodameae ohmeri (AR Bank #396), 1 C. krusei (AR Bank #397), 1 Candida lusitaniae (AR Bank #398), and 2 Saccharomyces cerevisiae strains (AR Bank #399 and AR Bank #400)) were part of a larger fungal library from the AR Bank maintained by the Centers for Disease Control and Prevention (CDC; Atlanta, GA, USA). Filamentous fungi and yeasts were cultivated at 35° C. in RPMI 1640 medium (with L-glutamine, without sodium bicarbonate, Sigma-Aldrich, St. Louis, MO) buffered to a pH of 7.0 with 0.165 M morpholinepropanesulfonic acid (MOPS) buffer (Sigma-Aldrich). For cytotoxicity assays, HepG2 and the mouse macrophage cell line J774A.1 were obtained from University of Kentucky. The human embryonic kidney cell line, HEK-293, was bought from the ATCC. Mammalian cells were grown in Dulbecco's Modified Eagle's Medium (DMEM) (from VWR) with 10% fetal bovine serum (FBS) (from VWR) and 1% Pen/Strep (from ATCC). Cell lines were cultured at 37° C. with 5% CO2 and passaged by trypsinization with 0.05% trypsin: 0.53 mM EDTA (from Sigma-Aldrich).
(§2) From the actively growing yeast culture, 100 µL were then transferred to 900 μL of RPMI 1640 medium and re-adjusted to achieve OD600 of 0.12 (˜1×10^6 CFU/mL). The cell suspension was further diluted to achieve 1:100 in RPMI 1640 medium.

[2] = system: Candida duobushaemulonii AR Bank #392; assay: MIC determination by in vitro antifungal assay; format: cell-based
Method: as §1, §2

[3] = system: Candida duobushaemulonii AR Bank #394; assay: MIC determination by in vitro antifungal assay; format: cell-based
Method: as §1, §2

[4] = system: Candida haemulonii AR Bank #393; assay: MIC determination by in vitro antifungal assay; format: cell-based
Method: as §1, §2

[5] = system: Candida haemulonii AR Bank #395; assay: MIC determination by in vitro antifungal assay; format: cell-based
Method: as §1, §2

[6] = system: Candida krusei AR Bank #397; assay: MIC determination by in vitro antifungal assay; format: cell-based; details: Candida strain AR Bank #397
Method: as §1, §2

[7] = system: Candida lusitaniae AR Bank #398; assay: MIC determination by in vitro antifungal assay; format: cell-based; details: Candida strain AR Bank #398
Method: as §1, §2

[8] = system: Kodameae ohmeri AR Bank #396; assay: MIC determination by in vitro antifungal assay; format: cell-based; details: strain AR Bank #396
Method: as §1, §2

[9] = system: Saccharomyces cerevisiae AR Bank #399; assay: MIC determination by in vitro antifungal assay; format: cell-based
Method: as §1, §2

HepG2 cells = assay: In vitro cytotoxicity assay (resazurin); format: cell-based; details: up to 31.3 j·tg mL^−1, 24 h
Method: The antifungal agent amphotericin B (AmB) was purchased from VWR (Radnor PA, USA). AmB was dissolved in DMSO at a final concentration of 5 mg/mL and was stored at −20° C., protected from light. […] For cytotoxicity assays, HepG2 and the mouse macrophage cell line J774A.1 were obtained from University of Kentucky. […] Mammalian cells were grown in Dulbecco's Modified Eagle's Medium (DMEM) (from VWR) with 10% fetal bovine serum (FBS) (from VWR) and 1% Pen/Strep (from ATCC). Cell lines were cultured at 37° C. with 5% CO2 and passaged by trypsinization with 0.05% trypsin: 0.53 mM EDTA (from Sigma-Aldrich).
Cytotoxicity assays were performed as previously described with slight modifications.^3 HepG2, J774A.1, and HEK-293 cells were first thawed from frozen stocks kept in liquid N2 and grown in Dulbecco's modified Eagles's medium (DMEM) containing 10% fetal bovine serum (FBS) and 1% Pen/Strep. […] The 96-well plates were incubated 37° C. with 5% CO2 overnight. […] The medium in the 96-well plates containing the cells was aspirated and replaced by fresh DMEM (100 μL). […] The 96-well plates were further incubated for 24 h at 37° C. with 5% CO2 overnight. To evaluate cell survival, each well was treated with 10 μL (2 mM) of resazurin sodium salt (Sigma-Aldrich, St. Louis, MO, USA) and was incubated for another 6 h. Metabolically active cells can convert resazurin to the highly fluorescent dye, resorufin, and be detected at ?560 excitation and λ590 emission using a SpectraMax M5 plate reader (Molecular Devices, San Jose, CA, USA). Triton X-100® (1%, v/v) was used as positive control; the negative control consisted of cells treated with the delivery vehicle (0.05% DMSO), and the blank control was only the culture medium with 0.05% DMSO without cells. The experiments were performed in quadruplicate.

[10] = system: panel of ten C. auris strains (AR Bank #381-390); assay: MIC determination, summary over the C. auris panel; format: cell-based, Candida auris; details: Candidozyma auris; against all ten C. auris strains tested (AR Bank #381-390)
Method: as §1, §2

[11] = system: ten other fungal strains (AR Bank #391-400); assay: MIC determination, summary over ten additional fungal strains; format: cell-based; details: read-out: MIC range
Method: as §1, §2

[12] = Candidozyma duobushaemuli, read-out: MIC
[13] = Candidozyma haemuli, read-out: MIC
[14] = Pichia kudriavzevii, read-out: MIC
[15] = Clavispora lusitaniae, read-out: MIC

Row | SMILES | MIC [1] [μg/mL^−1] | MIC [2] [μg/mL^−1] | MIC [3] [μg/mL^−1] | MIC [4] [μg/mL^−1] | MIC [5] [μg/mL^−1] | MIC [6] [μg/mL^−1] | MIC [7] [μg/mL^−1] | MIC [8] [μg/mL^−1] | MIC [9] [μg/mL^−1] | MIC [1, 12] [µg/mL] | MIC [2, 12] [µg/mL] | MIC [3, 12] [µg/mL] | MIC [4, 13] [µg/mL] | MIC [5, 13] [µg/mL] | MIC [6, 14] [µg/mL] | MIC [7, 15] [µg/mL] | MIC ([8]; read-out: MIC) [µg/mL] | MIC ([9]; read-out: MIC) [µg/mL] | MIC [10] [µg/mL] | MIC [11] [µg/mL] | further results
1 | C[C@@H]1[C@H](O)[C@@H](C)/C=C/C=C/C=C/C=C/C=C/C=C/C=C/[C@H](O[C@@H]2O[C@H](C)[C@@H](O)[C@H](N)[C@@H]2O)C[C@@H]2O[C@](O)(C[C@@H](O)C[C@@H](O)[C@H](O)CC[C@@H](O)C[C@@H](O)CC(=O)O[C@H]1C)C[C@H](O)[C@H]2C(=O)O [AmB, amphotericin B, reference compound] | 7.8 | 7.8 | 0.98 | 13.6 | 3.9 | 0.49 | 3.9 | 1.95 | 15.6 | – | – | – | – | – | – | – | – | – | – | – | –
2 | O=C(NNc1cccc(F)c1)c1ccccn1 [Compound 2a] | 0.49 | 0.24 | 0.49 | 0.12 | ≤0.06 | 0.24 | 0.98 | 0.24 | 1.95 | – | – | – | – | – | – | – | – | – | – | – | toxicity (HepG2 cells): no toxicity
3 | O=C(NNc1cccc(Cl)c1)c1ccccn1 [Compound 2b] | 0.24 | 0.24 | 0.12 | 0.12 | ≤0.06 | 0.12 | 0.98 | 0.12 | 0.98 | – | – | – | – | – | – | – | – | – | – | – | toxicity (HepG2 cells): no toxicity
4 | COc1cccc(NNC(=O)c2ccccn2)c1 [Compound 2c] | 1.95 | 1.95 | 0.98 | 0.49 | 0.49 | 0.49 | 1.95 | 0.49 | 7.8 | – | – | – | – | – | – | – | – | – | – | – | –
5 | O=C(NNc1ccc(F)cc1)c1ccccn1 [Compound 2d] | – | – | – | – | – | – | – | – | – | 0.49 (≈ 2.12 µM) | 0.49 (≈ 2.12 µM) | 0.24 (≈ 1.04 µM) | 0.24 (≈ 1.04 µM) | 0.12 (≈ 0.519 µM) | 0.24 (≈ 1.04 µM) | 1.95 (≈ 8.43 µM) | 0.24 (≈ 1.04 µM) | 3.9 (≈ 16.9 µM) | 0.12 to 7.8 (≈ 0.519 to 33.7 µM) | 0.06 to 7.8 (≈ 0.259 to 33.7 µM) | toxicity (HepG2 cells): no toxicity
6 | O=C(NNc1ccc(Cl)cc1)c1ccccn1 [Compound 2e] | 0.98 | 0.98 | 0.49 | 0.49 | 0.12 | 0.24 | 0.98 | 0.24 | 0.98 | – | – | – | – | – | – | – | – | – | – | – | –
7 | COc1ccc(NNC(=O)c2ccccn2)cc1 [Compound 2f] | – | – | – | – | – | – | – | – | – | 0.98 (≈ 4.03 µM) | 0.98 (≈ 4.03 µM) | 0.98 (≈ 4.03 µM) | 0.49 (≈ 2.01 µM) | 0.49 (≈ 2.01 µM) | 0.49 (≈ 2.01 µM) | 0.98 (≈ 4.03 µM) | 0.49 (≈ 2.01 µM) | 1.95 (≈ 8.02 µM) | 0.12 to 7.8 (≈ 0.493 to 32.1 µM) | 0.06 to 1.95 (≈ 0.247 to 8.02 µM) | –
8 | O=C(NNc1cc(F)ccc1F)c1ccccn1 [Compound 2h] | – | – | – | – | – | – | – | – | – | 0.49 (≈ 1.97 µM) | 0.24 (≈ 0.963 µM) | 0.24 (≈ 0.963 µM) | 0.98 (≈ 3.93 µM) | 0.24 (≈ 0.963 µM) | 0.24 (≈ 0.963 µM) | 0.49 (≈ 1.97 µM) | 0.12 (≈ 0.482 µM) | 1.95 (≈ 7.82 µM) | 0.06 to 1.95 (≈ 0.241 to 7.82 µM) | 0.06 to 1.95 (≈ 0.241 to 7.82 µM) | –
9 | O=C(NNc1cc(Cl)cc(Cl)c1)c1ccccn1 [Compound 2j] | – | – | – | – | – | – | – | – | – | 0.98 (≈ 3.47 µM) | 0.98 (≈ 3.47 µM) | 0.49 (≈ 1.74 µM) | 0.24 (≈ 0.851 µM) | 0.24 (≈ 0.851 µM) | 0.49 (≈ 1.74 µM) | 3.9 (≈ 13.8 µM) | 0.49 (≈ 1.74 µM) | 3.9 (≈ 13.8 µM) | 0.12 to 7.8 (≈ 0.425 to 27.6 µM) | 0.06 to 7.8 (≈ 0.213 to 27.6 µM) | –
10 | O=C(NNc1ccc(F)cc1F)c1ccc(F)cn1 [Compound 3g] | – | – | – | – | – | – | – | – | – | – | – | – | – | – | – | – | – | – | 0.12 to 7.8 (≈ 0.449 to 29.2 µM) | – | –
11 | O=C(NNc1ccc(F)cc1)c1ccc(Br)cn1 [Compound 4d] | – | – | – | – | – | – | – | – | – | – | – | – | – | – | – | – | – | – | 0.12 to 7.8 (≈ 0.387 to 25.2 µM) | – | –
